Laboratory results published in patent EP4596574A1, “GLP-1/GCG/GIP TRIPLE-RECEPTOR AGONIST AND USE THEREOF” (Sunshine Lake Pharma Co., Ltd., priority 2022, dated 2024).
Marks after values point to notes of the source that are not given here.

Columns and labels:
[1] = Pharmacokinetic study in rats, single subcutaneous injection; conditions: male, Sprague Dawley, in vivo, sc, rat, 50 nmol/kg single subcutaneous injection, plasma
Protocol: The pharmacokinetic study of each polypeptide compound prepared in Example 1 was conducted using male Sprague Dawley rats. There were 3 male rats in each group. […] The dose was 50 nmol/kg, and a single subcutaneous injection was given (see Table 3 for specific peptide compounds). After administration, plasma was collected on the specified days and time points, and the concentration of each peptide compound in the plasma was detected by LC-MS/MS method. The pharmacokinetic parameters were obtained based on the concentration data, which were used to describe the pharmacokinetic properties of the peptide in rats after subcutaneous injection. Table 3: Summary of pharmacokinetic parameters of some triple-target peptides in rats

[2] = Glucose tolerance assessment in normal C57BL/6 mice (Example 4); type: in vivo; conditions: 3 nmol/kg s.c. single dose, 24 h after administration
In short: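 Twelve hours after a single administration, mice were fasted 12 h and then given 2 g/kg glucose i.p. Tail-vein blood glucose was measured at baseline and at 15, 30, 60 and 90 min. AUC0–90min was calculated per dose group at 24 h post-dose.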

[3] = Glucose tolerance assessment in normal C57BL/6 mice (Example 5); type: in vivo; conditions: 3 nmol/kg s.c. single dose, 24 h after administration
In short: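 Normal C57BL/6 mice given a single dose, fasted 12 h starting 12 h post-dose, then challenged with 2 g/kg glucose i.p. Tail-vein glucose measured at baseline and 15, 30, 60, 90 min. AUC0~90min calculated from the glucose–time curve per dose group.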

[4] = 15 min after 2 g/kg glucose i.p.
[5] = 30 min after 2 g/kg glucose i.p.
[6] = 60 min after 2 g/kg glucose i.p.
[7] = 90 min after 2 g/kg glucose i.p.
[8] = basal before 2 g/kg glucose i.p.
[9] = blood glucose AUC, 2 g/kg glucose i.p.

| Compound | AUC(0-inf) [1] | AUC(0-t) [1] | Cmax [1] | half-life ([1]; read-out: T1/2 (converted)) | Tmax ([1]; read-out: Tmax) | Blood glucose level (mM) 15 min [2, 4] | Blood glucose level (mM) 30 min [2, 5] | Blood glucose level (mM) 60 min [2, 6] | Blood glucose level (mM) 90 min [2, 7] | Blood glucose level (mM) 0 min [2, 8] | AUC0-90 min [2, 9] | Blood glucose level (mM) 15 min [3, 4] | Blood glucose level (mM) 30 min [3, 5] | Blood glucose level (mM) 60 min [3, 6] | Blood glucose level (mM) 90 min [3, 7] | Blood glucose level (mM) 0 min [3, 8] | AUC0-90 min [3, 9] |
| --- | --- | --- | --- | --- | --- | --- | --- | --- | --- | --- | --- | --- | --- | --- | --- | --- | --- |
| CC[C@H](C)[C@H](NC(=O)[C@H](Cc1ccccc1)NC(=O)[C@H](CCC(=O)O)NC(=O)[C@H](CCCNC(=N)N)NC(=O)[C@H](CCC(N)=O)NC(=O)[C@H](CCCNC(=N)N)NC(=O)[C@H](CCCCNC(=O)COCCOCCNC(=O)CC[C@H](NC(=O)CCCCCCCCCCCCCCCCC(=O)O)C(=O)O)NC(=O)[C@H](CCC(=O)O)NC(=O)[C@H](CC(=O)O)NC(=O)[C@H](CC(C)C)NC(=O)[C@H](CC(C)C)NC(=O)[C@@H](NC(=O)[C@H](CO)NC(=O)[C@H](Cc1ccc(O)cc1)NC(=O)[C@H](CC(=O)O)NC(=O)[C@H](CO)NC(=O)[C@@H](NC(=O)[C@](C)(Cc1ccccc1F)NC(=O)[C@@H](NC(=O)CNC(=O)[C@H](Cc1c[nH]cn1)NC(=O)C(C)(C)NC(=O)[C@@H](N)Cc1ccc(O)cc1)[C@@H](C)O)[C@@H](C)O)[C@@H](C)CC)C(=O)N[C@@H](CCC(=O)O)C(=O)N[C@@H](Cc1c[nH]c2ccccc12)C(=O)N[C@@H](CC(C)C)C(=O)N[C@@H](CC(C)C)C(=O)N[C@@H](C)C(=O)NCC(=O)NCC(=O)N1CCC[C@H]1C(=O)N[C@@H](CO)C(=O)N[C@@H](CO)C(=O)NCC(=O)N[C@@H](C)C(=O)N1CCC[C@H]1C(=O)N1CCC[C@H]1C(=O)N1CCC[C@H]1C(=O)N[C@@H](CO)C(=O)O [HEC-PT77] | 22200 ± 3840 ng·h/mL | 22000 ± 3870 ng·h/mL | 596 ± 213 ng/mL | 11 ± 1.6 h | 15 ± 11 h | 12.6 ± 3.3 mM | 9.6 ± 3.4 mM | 8.5 ± 2.7 mM | 6.9 ± 1.9 mM | 4.0 ± 0.5 mM | 776.9±227.6^a |  |  |  |  |  |  |
| CC[C@H](C)[C@H](NC(=O)[C@H](Cc1ccccc1)NC(=O)[C@H](C)NC(=O)[C@H](CCCNC(=N)N)NC(=O)[C@H](CCC(N)=O)NC(=O)[C@H](CCCNC(=N)N)NC(=O)[C@H](CCCCNC(=O)COCCOCCNC(=O)CC[C@H](NC(=O)CCCCCCCCCCCCCCCCCCC(=O)O)C(=O)O)NC(=O)[C@H](CCC(=O)O)NC(=O)[C@H](CC(=O)O)NC(=O)[C@H](CC(C)C)NC(=O)[C@H](CC(C)C)NC(=O)[C@@H](NC(=O)[C@H](CO)NC(=O)[C@H](Cc1ccc(O)cc1)NC(=O)[C@H](CC(=O)O)NC(=O)[C@H](CO)NC(=O)[C@@H](NC(=O)[C@](C)(Cc1ccccc1F)NC(=O)[C@@H](NC(=O)CNC(=O)[C@H](CCC(N)=O)NC(=O)C(C)(C)NC(=O)[C@@H](N)Cc1ccc(O)cc1)[C@@H](C)O)[C@@H](C)O)[C@@H](C)CC)C(=O)N[C@@H](CCC(=O)O)C(=O)N[C@@H](Cc1ccc(O)cc1)C(=O)N[C@@H](CC(C)C)C(=O)N[C@@H](CC(C)C)C(=O)N[C@@H](C)C(=O)NCC(=O)NCC(=O)N1CCC[C@H]1C(=O)N[C@@H](CO)C(=O)N[C@@H](CO)C(=O)NCC(=O)N[C@@H](C)C(=O)N1CCC[C@H]1C(=O)N1CCC[C@H]1C(=O)N1CCC[C@H]1C(=O)N[C@@H](CO)C(=O)O [HEC-PT86] |  |  |  |  |  |  |  |  |  |  |  | 13.2 ± 1.4 mM | 10.3 ± 1.9 mM | 8.8 ± 1.0 mM | 7.0 ± 0.8 mM | 3.9 ± 0.2 mM | 827.3±70.3^a |
